ChEMBL document CHEMBL6177982, “Structural Optimization of Pyrazole Compounds as Hsp90 Regulators with Enhanced Antitumor Activity” (J Med Chem, 2025)
Calls of active or inactive are those of the source. The rule behind the calls is not given here.

Assays:
[1] = target: Heat shock protein HSP 90-beta/Hsp90 co-chaperone Cdc37 (Homo sapiens) (UniProt P08238+Q16543); assay: Inhibition of His-tagged HSP90(unknown origin)/GST-tagged CDC37 (unknown origin) protein-protein interaction at 100 uM preincubated with HSP90 for 1 hrs followed by CDC37 addition and measured after 1 hrs by HTRF assay relative to control; type: protein-complex assay
HCT-116 [2] = assay: Antiproliferative activity against human HCT-116 cells assessed as inhibition of cell proliferation incubated for 72 hrs by MTT assay; type: functional, cell-based; settings: HCT-116, 72 h
HCT-116 [3] = assay: Antiproliferative activity against CDC37 knockout human HCT-116 cells assessed as inhibition of cell proliferation incubated for 72 hrs by MTT assay; type: functional, cell-based; settings: for IC50: HCT-116, 72 h
[4] = Selectivity ratio of IC50 for antiproliferative activity against CDC37 knockout human HCT-116 cells to IC50 for antiproliferative activity against human HCT-116 cells; type: functional
[5] = target: Heat shock protein HSP90 (Homo sapiens) (UniProt P07900+P08238); assay: Induction of thermal stabilization of HSP90 in human HCT-116 cells at 10 uM at 53 to 55 degreeC by CETSA based Western blot analysis; type: cell-based
[6] = Permeability of compound at pH 7.4 incubated for 4 hrs by PAMPA based UV analysis; type: ADME; settings: read-out: permeability
HT-29 = assay: Antiproliferative activity against human HT-29 cells assessed as inhibition of cell proliferation incubated for 72 hrs by MTT assay; type: functional, cell-based; settings: HT-29, 72 h
MCF7 = assay: Antiproliferative activity against human MCF7 cells assessed as inhibition of cell proliferation incubated for 72 hrs by MTT assay; type: functional, cell-based; settings: MCF7, 72 h
CT26 = assay: Antiproliferative activity against mouse CT26 cells assessed as inhibition of cell proliferation incubated for 72 hrs by MTT assay; type: functional, cell-based; settings: CT26, 72 h
HT-1080 = assay: Antiproliferative activity against human HT-1080 cells assessed as inhibition of cell proliferation incubated for 72 hrs by MTT assay; type: functional, cell-based; settings: HT-1080, 72 h
SK-BR-3 = assay: Antiproliferative activity against human SK-BR-3 cells assessed as inhibition of cell proliferation incubated for 72 hrs by MTT assay; type: functional, cell-based; settings: SK-BR-3, 72 h

| SMILES | inhibition [1] [%] | IC50 (HCT-116 [2]) [µM] | IC50 (HCT-116 [3]) [µM] | Ratio IC50 [4] | further results |
| --- | --- | --- | --- | --- | --- |
| Cc1ccc(-c2nn(-c3ccccc3)cc2/C=C/C(=O)N2CCCCC2C(N)=O)cc1 (stereo unspecified) | 44.7 | 10.9 | 30.8 | 2.8 |  |
| O=S(=O)(/C=C/c1cn(-c2ccccc2)nc1-c1cccnc1)c1ccc(Cl)cc1 | 89.2 | 1.28 | > 50 | >50 |  |
| COc1cc(-c2nn(-c3ccccc3)cc2/C=C/C(=O)N2CCCCC2C(N)=O)ccc1Br (stereo unspecified) | 49.2 | 10.1 | 44.7 | 4.4 |  |
| NC(=O)C1CCCCN1C(=O)/C=C/c1cn(-c2ccccc2)nc1-c1cccc(Cl)c1 (stereo unspecified) | 48.3 | 9.17 | 28.2 | 3.1 |  |
| Cc1ccc(S(=O)(=O)/C=C/c2cn(-c3ccccc3)nc2-c2cccnc2)cc1 | 85.8 | 4.77 | > 50 | >10 |  |
| O=C(/C=C/c1cn(-c2ccccc2)nc1-c1cccnc1)N1CCCCC1 | 68.8 | 8.11 | > 50 | >5 |  |
| Cc1cccc(S(=O)(=O)/C=C/c2cn(-c3ccccc3)nc2-c2cccnc2)c1 | 83.2 | 4.23 | > 50 | >10 |  |
| NC(=O)C1CCCCN1C(=O)/C=C/c1cn(-c2ccccc2)nc1-c1cccc(Br)c1 (stereo unspecified) | 50.2 | 12.2 | 44.5 | 3.6 |  |
| Cc1cccc(-c2nn(-c3ccccc3)cc2/C=C/C(=O)N2CCCCC2C(N)=O)c1 (stereo unspecified) | 52.9 | 8.12 | 35 | 4.3 |  |
| NC(=O)C1CCCCN1C(=O)/C=C/c1cn(-c2ccccc2)nc1-c1cccc([N+](=O)[O-])c1 (stereo unspecified) | < 20 | > 50 | > 50 |  |  |
| NC(=O)C1CCCCN1C(=O)/C=C/c1cn(-c2ccccc2)nc1-c1cncc(Br)c1 (stereo unspecified) | 72.5 | 9.18 | > 100 | >10 |  |
| Cc1ccccc1S(=O)(=O)/C=C/c1cn(-c2ccccc2)nc1-c1cccnc1 | 87.6 | 2.55 | > 50 | >25 |  |
| CCOC(=O)c1cccc(-c2nn(-c3ccccc3)cc2/C=C/C(=O)N2CCCCC2C(N)=O)c1 (stereo unspecified) | < 20 | > 50 | > 50 |  |  |
| NC(=O)C1CCCCN1C(=O)/C=C/c1cn(-c2ccccc2)nc1Cc1ccccc1 (stereo unspecified) | 38.9 | 18.2 | 42.2 | 2.3 |  |
| COc1ncccc1-c1nn(-c2ccccc2)cc1/C=C/C(=O)N1CCCCC1C(N)=O (stereo unspecified) | 45.7 | 12.5 | > 50 | <5 |  |
| O=S(=O)(CCc1cn(-c2ccccc2)nc1-c1cccnc1)c1ccccc1 |  | > 50 | > 50 |  | Activity [5]: inactive |
| NC(=O)C1CCCCN1C(=O)/C=C/c1cn(-c2ccccc2)nc1-c1ccncc1 (stereo unspecified) | 70.4 | 8.11 | > 100 | >10 |  |
| N#Cc1cccc(-c2nn(-c3ccccc3)cc2/C=C/C(=O)N2CCCCC2C(N)=O)c1 (stereo unspecified) | < 20 | > 50 | > 50 |  |  |
| CCCN(CCC)C(=O)/C=C/c1cn(-c2ccccc2)nc1-c1cccnc1 | 63.6 | 9.04 | 46.3 | 5.1 |  |
| NC(=O)C1CCCCN1C(=O)/C=C/c1cn(-c2ccccc2)nc1-c1ccccc1 (stereo unspecified) | 46.4 | 10 | 28.8 | 2.8 |  |
| NC(=O)C1CCCCN1C(=O)/C=C/c1cn(-c2ccccc2)nc1-c1cccnc1Br (stereo unspecified) | 42.9 | 11.8 | > 50 | <5 |  |
| O=C(/C=C/c1cn(-c2ccccc2)nc1-c1cccnc1)N1CCCC1 | 65.9 | 8.48 | > 50 | >5 |  |

| SMILES | inhibition [1] [%] | IC50 (HCT-116 [2]) [µM] | IC50 (HCT-116 [3]) [µM] | Ratio IC50 [4] | further results |
| --- | --- | --- | --- | --- | --- |
| CCN(CC)C(=O)/C=C/c1cn(-c2ccccc2)nc1-c1cccnc1 | 60.2 | 10.3 | 49.9 | 4.8 |  |
| Cc1cc(-c2nn(-c3ccccc3)cc2/C=C/C(=O)N2CCCCC2C(N)=O)ccc1Cl (stereo unspecified) | 46.9 | 10.6 | 42.7 | 4 |  |
| NC(=O)C1CCCCN1C(=O)/C=C/c1cn(-c2ccccc2)nc1-c1ccco1 (stereo unspecified) | 55.4 | 9.79 | > 50 | >5 |  |
| CN(C)C(=O)/C=C/c1cn(-c2ccccc2)nc1-c1cccnc1 | 58.9 | 12.4 | 46 | 3.7 |  |
| NC(=O)C1CCCCN1C(=O)/C=C/c1cn(-c2ccccc2)nc1-c1ccc(Cl)cc1 (stereo unspecified) | 45.4 | 11.8 | 32.3 | 2.7 |  |
| NC(=O)C1CCCCN1C(=O)/C=C/c1cn(-c2ccccc2)nc1-c1cccs1 (stereo unspecified) | 59 | 8.46 | > 50 | >5 |  |
| Cc1ccc(-c2nn(-c3ccccc3)cc2/C=C/C(=O)N2CCCCC2C(N)=O)cc1C (stereo unspecified) | 62.9 | 7.83 | 25.1 | 3.2 | Papp at 4 h [6]: 230 nm/s; IC50 (HT-29): 10.2 µM; IC50 (MCF7): 12.2 µM; IC50 (CT26): 9.24 µM; IC50 (HT-1080): 14.8 µM; IC50 (SK-BR-3): 13.9 µM |
| Cc1ccccc1-c1nn(-c2ccccc2)cc1/C=C/C(=O)N1CCCCC1C(N)=O (stereo unspecified) | 45.4 | 10.2 | 27.5 | 2.7 |  |
| O=C(/C=C/c1cn(-c2ccccc2)nc1-c1cccnc1)N1CCCCCC1 | 72.5 | 7.17 |  | >20 | Activity (HCT-116 [3]): inactive |
| NC(=O)C1CCCCN1C(=O)/C=C/c1cn(-c2ccccc2)nc1-c1ccc2ccccc2c1 (stereo unspecified) | < 20 | > 50 | > 50 |  |  |
| CCCN(C)C(=O)/C=C/c1cn(-c2ccccc2)nc1-c1cccnc1 | 59.8 | 9.26 | 48.1 | 5.2 |  |
| NC(=O)C1CCCCN1C(=O)/C=C/c1cn(-c2ccccc2)nc1-c1cccc(C(=O)O)c1 (stereo unspecified) | < 20 | > 50 | > 50 |  |  |
| NC(=O)C1CCCCN1C(=O)/C=C/c1cn(-c2ccccc2)nc1-c1cccc(F)c1 (stereo unspecified) | 45.6 | 14.2 | 42.2 | 3 |  |
| COc1cc(-c2nn(-c3ccccc3)cc2/C=C/C(=O)N2CCCCC2C(N)=O)ccc1Cl (stereo unspecified) | 43.3 | 11 | > 50 | <5 |  |
| Cc1cc(-c2nn(-c3ccccc3)cc2/C=C/C(=O)N2CCCCC2C(N)=O)ccc1F (stereo unspecified) | 45.7 | 12.6 | > 50 | <5 |  |
| NC(=O)C1CCCCN1C(=O)/C=C/c1cn(-c2ccccc2)nc1-c1ccccn1 (stereo unspecified) | 69.5 | 7.11 | > 100 | >10 |  |
| COc1cncc(-c2nn(-c3ccccc3)cc2/C=C/C(=O)N2CCCCC2C(N)=O)c1 (stereo unspecified) | 70.9 | 8.98 | > 100 | >10 |  |
| NC(=O)C1CCCCN1C(=O)/C=C/c1cn(-c2ccccc2)nc1-c1cccnc1 (stereo unspecified) | 74.4 | 6.12 | > 100 | >10 |  |
| NC(=O)C1CCCCN1C(=O)/C=C/c1cn(-c2ccccc2)nc1-c1cccc(N)c1 (stereo unspecified) | 68.3 | 9.11 | > 50 | >5 |  |
| COc1cccc(-c2nn(-c3ccccc3)cc2/C=C/C(=O)N2CCCCC2C(N)=O)c1 (stereo unspecified) | 67.8 | 10.3 | > 50 | >5 |  |
| NC(=O)C1CCCCN1C(=O)/C=C/c1cn(-c2ccccc2)nc1-c1cncc(C(F)(F)F)c1 (stereo unspecified) | < 20 | > 50 | > 50 |  |  |
